# Measured values: article PMC7822816, “Halo-fluorescein for photodynamic bacteria inactivation in extremely acidic conditions” (Nature Communications, 2021)
# “And” between values parts separate entries of the source, which are not always exact repeats. Equal values may be shown once.
# Assays:
# MRSA = test: IC50 / growth inhibition of photodynamic inactivation, MRSA; assay type: cell-based, methicillin-resistant S. aureus
# E. coli = test: IC50 / growth inhibition of photodynamic inactivation, E. coli
# Procedure: (§1) The bacteria were cultured overnight in a constant temperature oscillator (37 °C, 170 r/min, the specific culture conditions were listed in Supplementary Table 6). Suspensions of bacteria (100 μL, diluted 1000-folds, PBS) were added with different concentration PSs (final volume of 1 mL), and irradiated with LED (λ = 520 nm, 35 mW/cm^2) for 10 min. Then, the treated bacteria liquid (100 μL) were added into the culture medium and cultured in a 24-well plate. The OD600 of bacteria was measured to obtain the bacteria CFUs, and the survival rate were calculated as C/C0 × 100%, where C is the CFU of sample which treated with PSs and light, and C0 is the blank without any treatment. All photodynamic sterilizations were carried out in at least three replicates.
# (§2) Growth inhibition of E. coli by different concentrations of TIF.
# (§3) Irradiation: 520 nm green LED (6 mW/cm2), 10 min. Error bars = Standard Deviation (n=6).
# (§4) Growth inhibition of Salmonella by different concentrations of
# (§5) TIF. Irradiation: 520 nm green LED (6 mW/cm2), 10 min.
# [1] = system: bacteria in passionfruit lemon juice; test: Photodynamic sterilization of acidic juices
# Procedure: The prepared juice samples were divided into two groups: one for light treatment of 10–20 min (xenon lamp with 420 nm long-pass filter, 100 mW/cm^2), and another without (stored at 4 °C). […] For other juices (pH 3.6–4.6), similar bacteria inhibition results were obtained (Supplementary Figs. 63–66). Besides, the greatly extended shelf life was also applicable to strawberry juice (Supplementary Fig. 67) and tomato juice (Supplementary Fig. 68). […] It should be noted that the TIF-based method was efficient in treatment of acid- and heat-resistant A. acidoterrestris (Fig. 6), the main cause of fruit juice spoilage and deterioration (even after pasteurization[41]).
# Fresh juices were prepared and divided into two groups (each to a culture dish of 60 mm id), and then TIF was added with final concentration of 10 μM. One group was subjected to light processing (xenon lamp, 300 W, 420 nm optical filter, beam spot size 60 mm) for 10–20 min, and another without. All samples were sub-packed into the headspace bottle and stored in 4 °C for different time. To determine the bacteria colonies, 1 mL juice samples were mixed with plate count agar and culture at 37 °C for 48 h (GB 4789.2-2016). Afterward, the total number of bacteria colonies were counted.
# H. pylori = test: IC50 of photodynamic inactivation, H. pylori; details: Helicobacter pylori, 10 min, pH 2.5, read-out: IC50 (H. pylori)
# Procedure: For quantitative comparison, the half-maximal inhibitory concentrations (IC50) of TIF for these bacterial were measured (Supplementary Table 6, and Supplementary Figs. 51–58).
# Bacterial strains are listed in Supplementary Table 6. S. aureus and MRSA, and C. albicans were provided by West China Hospital of Stomatology, Sichuan University. A. acidoterrestris, S. enterica, H. pylori, L. plantarum, and E. coli were provided by College of Life Science, Sichuan University. The bacteria were cultured overnight in a constant temperature oscillator (37 °C, 170 r/min, the specific culture conditions were listed in Supplementary Table 6). Suspensions of bacteria (100 μL, diluted 1000-folds, PBS) were added with different concentration PSs (final volume of 1 mL), and irradiated with LED (λ = 520 nm, 35 mW/cm^2) for 10 min. Then, the treated bacteria liquid (100 μL) were added into the culture medium and cultured in a 24-well plate. The OD600 of bacteria was measured to obtain the bacteria CFUs, and the survival rate were calculated as C/C0 × 100%, where C is the CFU of sample which treated with PSs and light, and C0 is the blank without any treatment. All photodynamic sterilizations were carried out in at least three replicates.
# Irradiation: 520 nm green LED (6 mW/cm2), 10 min. Error bars = Standard Deviation (n=3).
# Irradiation: 520 nm green LED (6 mW/cm2), 10 min.
# [2] = Relative singlet oxygen quantum yield (1O2 phosphorescence, Rose Bengal standard); assay type: physicochemical; set-up: key: relative to Rose Bengal standard (ΦΔ = 0.75); details: pH = 10 media; relative, RB as the standard
# Procedure: To permit the open-form structure of all fluorescein derivatives, all the measurements were carried out in pH = 10 media.
# The singlet oxygen quantum yields (ΦΔ) of all fluorescein-based PSs were evaluated with Rose Bengal as the standard (ΦΔ = 0.75):1 ΦΔ=AsAbsorption/As(Emission)×ARB(Emission)/ARB(Absorption)×0.75 Here, the area of absorption (RB and PSs) was collected with an integrating sphere (λex = 510 nm), while the area of emission was obtained from the characterized 1270 nm ^1O2 phosphorescence emission. For collection of such emission, CH3CN and D2O mixed solvent (v (D2O): v (CH3CN) = 1:15, pH = 9.0, adjusted with 0.001 M NaOH) was used, since H2O can severely quench the singlet oxygen luminescence. For all the measurements, the concentrations of the PSs were set at 10 μM.
# S6.3 Relative singlet oxygen quantum yield
# The singlet O2 quantum yield of photosensitizers were measured by Fluolog-3 spectrofluorometer with an integration sphere (IS80, Labsphere) and NIR detector (Hamamatsu H-10330) in this work.
# For better collection of the characterized singlet oxygen phosphorescence emission (1275 nm), CH3CN and D2O mixed solvent was used (H2O can severely quench the singlet oxygen luminescence). The 10 mM stock solutions in CH3CN and D2O mixed solvent (VCH3CN:VD2O = 15:1) were first prepared. The stock solutions were diluted to 10 μM, and the final volume was 2 mL. In addition, the CH3CN and D2O mixed solvent as blank was also prepared.
# 1. Turn on the instrument and the start software, the light source is xenon lamp.
# 2. From the experiment menu, selected spectra, emission. The 1O2 emission phosphorescence spectra are first measured.
# 3. The parameters setting are listed: a. Excitation wavelength: 510 nm
# [3] = assay type: physicochemical; details: buffer, 5 min, pH 3
# Procedure: Next, the influence of the added TIF to jucies after photodynamic sterilization was further investigated from the following two aspects. First, like many other dyes, TIF experienced photo-bleaching upon photo irradiation. As shown in Supplementary Fig. 69, in the presence of green LED irradiation (520 nm, 50 mW/cm^2), the absorbance of TIF decreased rapidly in 5 min (with ~22% remaining). In other words, most of the added TIF in juices is expected to lose the ability of ROS generation after the first photodynamic sterilization process. Second, the ingredients inside the juices before and after TIF-involved photodynamic sterilization were evaluated. Here, the investigations were concentrated on antioxidants due to the high activity of ROS[42]. Three representative antioxidants, namely, ascorbic acid (vitamin C), phenolic compounds, and flavonoid, were chosen. […] Besides, the color, flavor, and texture of the juices were roughly evaluated through visual observation and smelling (method supplied in the Chinese National Standard GB/T 31121-2014), no appreciable changes were observed before and after TIF-based photodynamic sterilization. […]
# (1) The photo-bleaching of TIF. […] As can be seen from Figure R3 below, in the presence of green LED irradiation (520 nm, 50 mW/cm2), the absorbance of TIF decreased rapidly in 5 min (with ~22% remaining). […]
# Salmonella = test: IC50 of photodynamic inactivation, Salmonella; details: 10 min, pH 2.5, read-out: IC50 (Salmonella)
# Procedure: as §1, §2, §3, §4, §5
compound,measurement,setting,value
"O=C(O)c1ccccc1-c1c2cc(I)c(=O)c(I)c-2oc2c(I)c(O)c(I)cc12 [TIF, 2′,4′,5′,7′-tetraiodofluorescein]",IC50,"MRSA; Staphylococcus aureus, 10 min, pH 2.5, LED 520 nm, 35 mW/cm^2, 10 min",340 nM
same,Inhibition ratio,"MRSA; dose 2.0 μM, 3 V/3 W, 6 mW/cm2, 10 min",> 97.1%
same,Inhibition ratio,"E. coli; E.coli, dose 0.5 μM, 3 V/3 W, 6 mW/cm2, 10 min",> 99.3%
same,IC50,"E. coli; Escherichia coli, 10 min, pH 2.5, read-out: IC50 (E. coli)",210 nM
same,shelf life of juice after photo-treatment,"[1]; passionfruit lemon juice pH 2.8, 10 μM, xenon lamp 420 nm long-pass 100 mW/cm^2, 10 min, stored at 4 °C",~ 15 days and 15 days
same,sterilization performance compared with standard methods,"[1]; passionfruit lemon juice, versus pasteurization and O3 treatment",comparable sterilization performance as pasteurization
same,IC50,H. pylori,180 nM
same,singlet oxygen quantum yield (ΦΔ),[2],0.64
same,absorbance remaining after photo-bleaching,[3],~ 22%
same,IC50,Salmonella,630 nM
